Measured values: ChEMBL document CHEMBL4007412, “Design, Synthesis, and Biological Evaluation of Mitochondria-Targeted Flavone-Naphthalimide-Polyamine Conjugates with Antimetastatic Activity” (J Med Chem, 2017)
Active and inactive are the calls of the source.

Key:
HepG2 [1] = experiment: Cytotoxicity against human HepG2 cells assessed as cell growth inhibition after 48 hrs by MTT assay; type: functional, cell-based; conditions: HepG2, 48 h
SMMC-7721 [2] = experiment: Inhibition of colony formation of human SMMC7721 cells up to 20 uM […] by crystal violet staining based colony formation assay; type: functional, cell-based
HepG2 [3] = experiment: Inhibition of colony formation of human HepG2 cells up to 20 uM […] by crystal violet staining based colony formation assay; type: functional, cell-based
HepG2 [4] = experiment: Cytotoxicity against human HepG2 cells assessed as reduction in cell viability up to 20 uM after 24 to 72 hrs by MTT assay; type: functional, cell-based
[5] = Cytotoxicity against human QSG7701 cells assessed as reduction in cell viability up to 20 uM after 24 to 72 hrs by MTT assay; type: cell-based
SMMC-7721 [6] = experiment: Antimigratory activity against human SMMC7721 cells incubated for 24 hrs by transwell assay; type: functional, cell-based
H22 [7] = experiment: Antitumor activity against […] xenografted in Kunming mouse assessed as suppression of tumor weight at 3 mg/kg, iv dosed every day starting from day 8 after tumor cell inoculation; type: functional
H22 [8] = experiment: Antimetastatic activity against […] xenografted in pulmonary metastasis Kunming mouse model assessed as reduction in tumor metastatic nodules at 3 mg/kg, iv dosed every day starting from day 8 after tumor cell inoculation; type: functional; design: scale not given: the % may be the effect or the level left
Mus musculus [9] = experiment: Toxicity in Kunming mouse xenografted with […] cells assessed as effect on heart weight index at 3 mg/kg, iv dosed every day starting from day 8 after tumor cell inoculation; type: organism-based; conditions: in vivo
Mus musculus [10] = experiment: Toxicity in Kunming mouse xenografted with […] cells assessed as effect on liver weight index at 3 mg/kg, iv dosed every day starting from day 8 after tumor cell inoculation; type: organism-based; conditions: in vivo
Mus musculus [11] = experiment: Toxicity in Kunming mouse xenografted with […] cells assessed as effect on spleen weight index at 3 mg/kg, iv dosed every day starting from day 8 after tumor cell inoculation; type: organism-based; conditions: in vivo
Mus musculus [12] = experiment: Toxicity in Kunming mouse xenografted with […] cells assessed as effect on lung weight index at 3 mg/kg, iv dosed every day starting from day 8 after tumor cell inoculation; type: organism-based; conditions: in vivo
Mus musculus [13] = experiment: Toxicity in Kunming mouse xenografted with […] cells assessed as effect on kidney weight index at 3 mg/kg, iv dosed every day starting from day 8 after tumor cell inoculation; type: organism-based; conditions: in vivo
[14] = Drug uptake in human HepG2 cells assessed as PAT-mediated cellular uptake after 8 hrs by HCS analysis; type: ADME, cell-based
[15] = Drug uptake in human HepG2 cells assessed as PAT-mediated cellular uptake at 10 uM by HCS analysis; type: ADME, cell-based; conditions: TDE = time-dependent effect
HepG2 [16] = experiment: Cytotoxicity against human HepG2 cells assessed as effect on cell viability at 5 to 20 uM after 24 hrs in absence of spermidine by MTT assay; type: functional, cell-based
HepG2 [17] = experiment: Cytotoxicity against human HepG2 cells assessed as effect on cell viability at 5 to 10 uM after 24 hrs in presence of spermidine by MTT assay; type: functional, cell-based
[18] = Drug uptake in human HepG2 cells assessed as PAT-mediated compound uptake by measuring fluorescent intensity at 10 uM after 2 to 8 hrs in presence of spermidine by HCS analysis; type: ADME, cell-based
HepG2 [19] = experiment: Effect on ODC expression in human HepG2 cells at 5 to 20 uM after 24 hrs by Western blot analysis; type: functional, cell-based
SMMC-7721 [20] = experiment: Effect on SSAT expression in human SMMC7721 cells at 5 to 20 uM after 24 hrs by Western blot analysis; type: functional, cell-based
HepG2 [21] = experiment: Effect on putrescine levels in human HepG2 cells at 20 uM after 24 hrs by HPLC analysis; type: functional, cell-based
HepG2 [22] = experiment: Effect on spermine levels in human HepG2 cells at 20 uM after 24 hrs by HPLC analysis; type: functional, cell-based
SMMC-7721 [23] = experiment: Effect on spermidine levels in human SMMC7721 cells at 20 uM after 24 hrs by HPLC analysis; type: functional, cell-based
[24] = Drug localization in human HepG2 cell membranes at 10 uM after 8 hrs by DiO-staining based microscopic analysis; type: ADME
[25] = Drug localization in human HepG2 cell mitochondria at 10 uM after 8 hrs by Mito tracker-staining based confocal microscopic analysis; type: ADME
[26] = Drug localization in mitochondria of human HepG2 cells at 10 uM after 8 hrs by UV-bright field microscopic analysis; type: ADME
HepG2 [27] = experiment: Induction of apoptosis in human HepG2 cells assessed as reduction in viable cells up to 20 uM after 24 hrs by AO/EB double staining based flow cytometric analysis; type: functional, cell-based
HepG2 [28] = experiment: Induction of apoptosis in human HepG2 cells assessed as increase in apoptotic cells up to 20 uM after 24 hrs by AO/EB double staining based flow cytometric analysis; type: functional, cell-based
HepG2 [29] = experiment: Induction of apoptosis in human HepG2 cells assessed as early apoptotic cells at 20 uM after 24 hrs by Annexin V-FITC/propidium iodide staining based flow cytometric analysis (reference value: 2.09 %); type: functional
HepG2 [30] = experiment: Induction of apoptosis in human HepG2 cells assessed as necrotic cells at 20 uM after 24 hrs by Annexin V-FITC/propidium iodide staining based flow cytometric analysis (reference value: 2.99 %); type: functional
[31] = Induction of apoptosis in human QSG7701 cells assessed as up-regulation of caspase 3 expression up to 20 uM after 24 hrs by Western blot analysis; type: cell-based; conditions: qsg7701, 24 h
HepG2 [32] = experiment: Induction of intracellular ROS generation in human HepG2 cells at 20 uM after 8 hrs by DCFH-DA staining based HCS analysis relative to control; type: functional
[33] = Induction of intracellular ROS generation in human QSG7701 cells at 20 uM after 8 hrs by DCFH-DA staining based HCS analysis relative to control; type: cell-based; conditions: qsg7701, 8 h
HepG2 [34] = experiment: Induction of ROS generation in human HepG2 cells at 20 uM after 24 hrs in presence of TOC by DCFH-DA-staining based HCS analysis; type: functional, cell-based
HepG2 [35] = experiment: Antiproliferative activity against human HepG2 cells assessed as reduction in cell viability at 20 uM pre-treated with TOC after 48 hrs by MTT assay; type: functional, cell-based
SMMC-7721 [36] = experiment: Antiproliferative activity against human SMMC7721 cells assessed as reduction in cell viability at 20 uM pre-treated with TOC after 48 hrs by MTT assay; type: functional, cell-based
HepG2 [37] = experiment: Induction of cleaved PARP expression in human HepG2 cells up to 20 uM pre-treated with NAC measured after 24 hrs by Western blot analysis; type: functional, cell-based
HepG2 [38] = experiment: Inhibition of cell migration in human HepG2 cells pretreated with NAC measured after 24 hrs by transwell assay; type: functional, cell-based
H22 [39] = experiment: Antimetastatic activity against […] xenografted in pulmonary metastasis Kunming mouse model assessed as reduction in tumor metastatic nodules at 3 mg/kg, iv dosed every day starting from day 8 after tumor cell inoculation by H/E staining based leica microscopic analysis; type: functional, organism-based
HepG2 [40] = experiment: Induction of superoxide production in human HepG2 cells at 20 uM after 24 hrs by microplate reader based assay; type: functional, cell-based
HepG2 [41] = experiment: Induction of p53 expression in human HepG2 cells up to 20 uM after 24 hrs by immunofluoresence assay relative to control; type: functional, cell-based

Cl.Cl.NCCCCNCCCCN1C(=O)c2cccc3c(-c4cc(=O)c5ccccc5o4)ccc(c23)C1=O
Active: Drug uptake [25] | Drug uptake [26]
Not Active: Drug uptake [18] | Drug uptake [24]
Dose-dependent effect: Drug uptake [14]
60.4%: Activity (H22 [7])
Non-Toxic: Activity [5] | Activity (Mus musculus [9]) | Activity (Mus musculus [10]) | Activity (Mus musculus [11]) | Activity (Mus musculus [12]) | Activity (Mus musculus [13]) | Activity [31] | Activity [33]
active: Activity (SMMC-7721 [2]) | Activity (HepG2 [3]) | Activity (HepG2 [4]) | Activity (SMMC-7721 [6]) Dose-dependent effect | Activity (HepG2 [16]) | Activity (HepG2 [27]) Dose-dependent effect | Activity (HepG2 [28]) Dose-dependent effect | Activity (H22 [39]) | Activity (HepG2 [40]) | Activity (HepG2 [41]) Dose-dependent effect
77.9%: Activity (H22 [8])
10.3 µM: IC50 (HepG2 [1])
inactive: Activity (HepG2 [17]) | Activity (HepG2 [19]) | Activity (SMMC-7721 [20]) | Activity (HepG2 [21]) | Activity (HepG2 [22]) | Activity (SMMC-7721 [23]) | Activity (HepG2 [34]) | Activity (HepG2 [35]) | Activity (SMMC-7721 [36]) | Activity (HepG2 [37]) | inhibition (HepG2 [38])
8.91%: Activity (HepG2 [30])
2.6: fold change (FC) (HepG2 [32])
26.6%: Activity (HepG2 [29])
Tde: Drug uptake [15]
